TGI data for nine compounds are collected here from PubChem BioAssay (NCI).

Holding throughout (experiment): growth of human tumour cells (NCI), 48 h
The test system of experiment [1] is MCF7 breast.
In experiment [2] the test system is OVCAR-5 ovarian.
Experiment [3] has as its system K-562 leukemia.
Experiment [4] deals with PC-3 prostate.
Experiment [5] deals with HOP-92 NSCLC.
Experiment [6] relates to HOP-62 NSCLC.
Experiment [7] has as its system NCI-H23 lung.
Experiment [8] deals with M14 melanoma.
Experiment [9] concerns IGROV1 ovarian.
Experiment [10] concerns RPMI-8226 leukemia.
Experiment [11] has as its system U251 CNS.
For experiment [12], the system named is KM12 colon.
Experiment [13] deals with SK-OV-3 ovarian.
Experiment [14] has as its system A498 renal.
The subject of experiment [15] is NCI/ADR-RES ovarian.
Experiment [16] relates to ACHN renal.

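A five-concentration, 48-hour dose response in 96-well plates underlies each endpoint, interpolated linearly between surrounding concentrations. The concentration for full growth arrest is given as TGI.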 Where only a bound is given, the exact number is not on record here.

With `c1ccc([P+](Cc2ccc(C[P+](c3ccccc3)(c3ccccc3)c3ccccc3)s2)(c2ccccc2)c2ccccc2)cc1`, the TGI in experiment [1], in experiment [2], in [3], in [4], in experiment [5] and in experiment [6] was greater than 100 µM each time. Besides, the TGI in [7], in experiment [8], in experiment [9], in experiment [10], in experiment [11] and in experiment [12] was greater than 100 µM each time. Also, the TGI in experiment [13], in experiment [14], in experiment [15] and in [16] was greater than 100 µM in each case.

Take `CCCCCCCCCCCCCCCCNc1nc(=O)n(C2CC(O)C(COP(=O)(O)OC3CC(n4cc(F)c(=O)[nH]c4=O)OC3CO)O2)cc1F` (centres undefined): the TGI in experiment [1] was 97.1 µM; in experiment [2], greater than 100 µM; in experiment [3], 24.1 µM; in experiment [4] it was greater than 78.6 µM; in experiment [5], greater than 59.5 µM; in [6], 5.4 µM. The TGI in [7] is 19.4 µM; in experiment [8], 16.5 µM; in [9] it was greater than 59.9 µM; in [10], 25.5 µM; in [11], 32 µM; in [12], greater than 81.4 µM. For the same compound, the TGI in [13] is greater than 100 µM; in experiment [14] it was greater than 89.6 µM; in experiment [15], 46 µM; in [16] it was greater than 100 µM.

On to `Cc1ccc2c(n1)C(=O)c1cc(C)c(C)cc1C2=O`, for which the TGI in [1], in experiment [2], in experiment [3], in experiment [4], in experiment [5] and in [6] was greater than 100 µM each time. For the same compound, the TGI in experiment [7], in experiment [8], in [9], in experiment [10], in experiment [11] and in experiment [12] was greater than 100 µM in each case. Further, the TGI in experiment [13], in [14], in experiment [15] and in [16] was greater than 100 µM each time.

For `Clc1nc(NC23CC4CC(CC(C4)C2)C3)nc(NC23CC4CC(CC(C4)C2)C3)n1`, the TGI was greater than 100 µM in [1]; greater than 100 µM in [2]; 47 µM in [3]; greater than 40.6 µM in [4]; greater than 100 µM in [5]; greater than 100 µM in [6]. Also, the TGI in [7] is greater than 100 µM; in [8] it was greater than 100 µM; in experiment [9] it was greater than 100 µM; in experiment [10], greater than 100 µM; in experiment [11], greater than 69 µM; in [12], greater than 100 µM. For the same compound, the TGI in experiment [13], in experiment [14], in [15] and in [16] was greater than 100 µM each time.

Take `C[C@]12CC/C(=N\OCCN3CCCC3)C=C1CCC1C2CC[C@@]2(C)C1CC[C@]2(C)O` (some centres undefined): the TGI was greater than 100 µM in experiment [1]; greater than 100 µM in experiment [2]; 14.2 µM in [3]; 71.7 µM in experiment [4]; 32.3 µM in experiment [5]; 50 µM in [6]. The TGI in [7] was found to be 35.8 µM; in experiment [8] it was 37.1 µM; in [9] it was 35.9 µM; in experiment [10] it was 14 µM; in experiment [11], 20.2 µM; in [12], 19.1 µM. Further, the TGI in experiment [13] was determined as 44.5 µM; in experiment [14] it was 4.7 µM; in experiment [15] it was 15.4 µM; in [16] it was 50.3 µM.

On to `CCC(=O)NC(NNS(=O)(=O)c1ccc(C)cc1)(C(F)(F)F)C(F)(F)F`, for which the TGI in experiment [1], in experiment [2], in [3], in [4], in experiment [5] and in [6] was greater than 100 µM throughout. For the same compound, the TGI in [7] is greater than 100 µM; in experiment [8], greater than 100 µM; in experiment [9], greater than 100 µM; in [10], greater than 100 µM; in experiment [11] it was greater than 10 µM; in [12], greater than 100 µM. For the same compound, the TGI was greater than 100 µM in [13], greater than 100 µM in [14], 85.2 µM in experiment [15] and greater than 100 µM in [16].

As to `C=C(Cl)C(Cl)(CBr)CCCC(C)C` (centres undefined), the TGI in experiment [1] is 28.5 µM; in [2] it was 35.6 µM; in experiment [3] it was greater than 100 µM; in experiment [4] it was 27.5 µM; in experiment [5], 31.7 µM; in experiment [6], 27 µM. Further, the TGI in experiment [7] was greater than 100 µM; in experiment [8], greater than 100 µM; in experiment [9] it was greater than 100 µM; in experiment [10] it was greater than 27.3 µM; in experiment [11] it was 21.9 µM; in experiment [12], 24.2 µM. Moreover, the TGI in experiment [13] is greater than 100 µM; in experiment [14], 34 µM; in experiment [15], greater than 80.4 µM; in experiment [16] it was 26.2 µM.

`CCc1cn(C2CC(CO)C(CO)S2)c(=O)[nH]c1=O` (centres undefined): the TGI in experiment [1], in [2], in experiment [3], in [4], in experiment [5] and in experiment [6] was greater than 100 µM throughout. Also, the TGI in experiment [7], in [8], in experiment [9], in [10], in [11] and in experiment [12] was greater than 100 µM each time. Further, the TGI in [13], in experiment [14], in experiment [15] and in [16] was greater than 100 µM each time.

With `O=C(N/N=C\c1ccc([N+](=O)[O-])cc1)Nc1ccc2ccccc2c1`, the TGI in experiment [1] is greater than 100 µM; in experiment [2], greater than 100 µM; in experiment [3] it was greater than 100 µM; in experiment [4] it was greater than 100 µM; in [5], 54.4 µM; in experiment [6], 51.2 µM. The TGI in [7] is greater than 100 µM; in experiment [8], greater than 100 µM; in [9] it was greater than 100 µM; in [10], greater than 100 µM; in experiment [11], 45.8 µM; in experiment [12] it was 67.3 µM. Also, the TGI was 89.1 µM in [13], 56.8 µM in [14], greater than 100 µM in experiment [15] and greater than 100 µM in experiment [16].
